Reference: patent US20210220450A1, “TREATMENT OF AN IOP CONDITION” (The Research Foundation for The State University of New York, priority 2013, published 2021)

Experiments:
C57BL/6J mice = assay: Outflow facility in TA and protein treated C57BL/6J mouse eyes (Example 13); assay type: in vivo; details: TA five days before intravitreal protein (2 μl, 5 μg/μl); two days after injection
Method: C57BL/6J mice were divided into two groups:
1) Animals receiving bilateral steroid (TA) injection subconjunctivally five days prior to protein injection (FIG. 10b) and 2) Animals not receiving subconjunctival steroids (FIG. 10c).
1) Animals that received unilateral intravitreal injection with 2 μl of tPA (5 μg/μl, Actilyse; Boehringer Ingelheim, Ingelheim am Rhein, Germany) while the contralateral eye received 2 μl of BSA (5 μg/μl; Gold Biotechnology, St Louis, Mo., USA), and 2) Animals that received unilateral intravitreal injections with 2 μl of non-enzymatically active tPA (NE-tPA/S478A-tPA) (5 μg/μl; Innovative Research, Novi, Mich., USA) while the contralateral eye received 2 μl of BSA. Animals were euthanized two days after intravitreal injection.
Outflow facility determination: Mouse eyes were enucleated immediately after euthanasia. Outflow facility was determined using a constant pressure method, as previously described. Pressure was raised in steps of 4 cmH2O, from 8 cmH2O (5.88 mmHg) to 32 cmH2O (23.54 mmHg) by increasing the height of a column of fluid of BSS. […] Flow was constantly measured via a microfluidic flow sensor (0.07-1.5 uL/min, MFS1; Elveflow, Paris, France). […] Any eyes that developed visible leaks during outflow facility determination, or that had pressure-flow correlations with R^2<0.9, were excluded from analysis but were used for RNA quantification.

Mmp-2, Mmp-9, Mmp-13 = assay: Mmp expression in Tg-MYOCY437H angle ring tissue (Example 19); assay type: in vivo, mouse; details: vs BSA treated eyes
Method: Eyes were flash frozen in liquid nitrogen after outflow facility determination and subsequently dissected on ice to obtain the angle ring tissues containing the TM, as previously described (Kumar, Shah et al. 2013). Dissected TM tissues were immersed in RNAlater solution (Invitrogen, Waltham, Mass., USA) and then snap-frozen and stored at −80° C. until RNA extraction. Tissue collected was pooled (four eyes) and homogenized in TRIzol reagent for RNA isolation, per manufacturer's instructions (Life Technologies, Carlsbad, Calif., USA). RNA concentration was determined with a Nanodrop ND-1000 Spectrophotometer (Thermo Scientific, Wilmington, Del., USA). cDNA was synthesized by using High-Capacity cDNA Reverse Transcription Kit (Applied Biosystems, Waltham, Mass., USA) according to manufacturer's protocol. Quantitative real-time PCR (qRT-PCR) was performed by using Green-2-Go qPCR Mastermix-ROX (Bio Basic, Amherst, N.Y., USA) on a QuantStudio 6 Flex thermal cycler (Applied Biosystems, Carlsbad, Calif., USA). mRNA expression of Plat, Plau, Pai-1, Mmp-2, Mmp-9, and Mmp-13 in angle ring tissues was determined. Primers were designed by using Primer-BLAST (https://www.ncbi.nlm.nih.gov/tools/primer-blast/index.cgi?LINK_LOC=BlastHome; in the public domain); primer sequences are listed in Table 2. Primer specificity was confirmed by agarose gel electrophoresis and multiple-sized amplification products were absent on inspection of melting curves. Target mRNA expression values were normalized to the expression levels of Rps11 (ribosomal protein S11). The relative fold change was calculated by using the ΔΔCt method (Hu, Wang et al. 2015). Outliers identified via the Thompson Tau test were removed from analysis.

**Q.** Which “outflow facility, mean±standard deviation” value (C57BL/6J mice) does the source give for tissue plasminogen activator [tPA] here?
**A.** 105.3±35.8×10^−5 μl/min/mmHg

**Q.** What about the Mmp-2 expression (Mmp-2, Mmp-9, Mmp-13; 2 days) of the same substance?
**A.** no significant difference

**Q.** What about the Mmp-9 expression (Mmp-2, Mmp-9, Mmp-13; 2 days) of the same substance?
**A.** not detected

**Q.** What about the Mmp-13 expression (Mmp-2, Mmp-9, Mmp-13; 2 days) of the same substance?
**A.** significantly higher

**Q.** What about the Mmp-2 expression (Mmp-2, Mmp-9, Mmp-13; 5 days) of the same substance?
**A.** no significant difference

**Q.** And the Mmp-9 expression (Mmp-2, Mmp-9, Mmp-13; 5 days)?
**A.** higher

**Q.** And the Mmp-13 expression (Mmp-2, Mmp-9, Mmp-13; 5 days)?
**A.** significantly higher
